Assay results reported in patent US10106582B2, “Complex-formation-modulating agents and uses therefor” (Factor Therapeutics Limited, priority 2012, dated 2018).

Assays:
Assay type in all cases: cell-based, human
MCF-7 cells [1] = experiment: Transwell migration assay, IGF-I+IGFBP-5+VN trimeric complex-stimulated MCF-7 cell migration
Source text: Two motifs (motifs 1 and 8) within native VN, deemed potentially significant in supporting the binding of IGF-II, IGFBP-3 and IGFBP-5, were identified as outlined in the previous section. After preliminary in silico analyses motif 8 (J4-7) was deemed as potentially the most significant region within native VN supporting binding interactions of all the three IGF-II, IGFBP-3 and IGFBP-5 proteins and was chosen for the initial analyses. The VN-peptide covering the sequences of motif 8 was designed such that it covered all the 3AA frameshift sets that contributed to a positive spot within the motif 8 (see, FIG. 3 and Table 7). The sequence of this peptide is RVNLRTRRVDTVDPPYPRS [SEQ ID NO:100] and is designated P8. […] The sequence of that peptide is […] [SEQ ID NO:86] and is designated P7. […] The functional effects of these peptides on IGF-I:IGFBP:VN-stimulated breast cancer cell migration were investigated using Transwell® assays. Transwells® were pre-bound with VN, either alone or in combination with IGF-I and IGFBP-5 (TRI). Treatment with TRI supplemented with increasing concentrations of peptides P7 and/or P8 were assayed. TRI supplemented with Anlg or Neg peptide were included as positive and negative controls of migration inhibition, respectively. All unbound proteins were removed with washing and MCF-7 cell migration was assessed over 15 hours.
The Transwell® inserts were prepared by pre-binding the lower chamber and the under-surface of the 8-μm pore membranes with proteins as described below. For all 2D functional assays described throughout this study, including Transwell® the treatments for the pre-binding steps were VN, IGF-I+IGFBP-5+VN (TRI) complex, either alone or in combination with respective controls or VN-peptides. The concentrations of the proteins added into the culture wells were VN, 1 μg/mL; IGF-I, 30 ng/mL and IGFBP-5, 90 ng/mL, unless otherwise stated. The concentration of VN-peptides used are indicated where appropriate.
Optimal IGF-I:IGFBP-5:VN-mediated attachment and migration of MCF-7 cells in multiwell plates is obtained by pre-binding human native-IGF-I and/or IGFBP-5 and VN at concentrations of 30 ng/mL, 90 ng/mL and 1 μg/mL per well, respectively, to the lower chambers and under surfaces of Transwells®. […] For Anlg, concentrations varying from 30 ng/mL to 300 ng/mL were used.
Transwells® were prepared by pre-binding the test proteins, either alone or in combinations, to the lower chambers and under-surfaces of Transwells® following procedures previously described (Kricker et al., 2003). Briefly, 0.5 mL DMEM/F12 serum-free phenol-red free medium (SFM) containing 1 μg/mL VN was added to the lower chambers of 24-well, 8-μm pore Transwell® plates and incubated for 3 hours at 37° C. Unbound VN was removed and the wells were washed twice with 0.5 mL SFM+0.5% BSA following which 0.5 mL of SFM+0.5% BSA was placed in the lower chamber to block surfaces with no protein bound. To pre-bind growth factors, 0.5 mL SFM+0.05% BSA containing native IGF-I (30 ng/mL), IGFBP-5 (90 ng/mL) or Anlg, either alone or in combination, were added to the lower chambers of the Transwells® and incubated overnight at 4° C. The solution containing unbound growth factors was removed and the wells were washed twice with SFM+0.05% BSA and replaced with 0.5 mL of SFM+0.05% BSA. Throughout the pre-binding procedure care was taken to keep the upper surface of the Transwell® inserts dry.
Migration assays were essentially performed following protocols described previously in Leavesley et al 1993, J Cell Biol. 121:163-70. The cells in culture flasks were split 1:1, 24 hours prior to performing the migration assay. The cells were serum-starved for 4 hours and a cell suspension containing 6×10^4 cells in 200 μL SFM+0.05% BSA was seeded onto the upper-surface of the pre-coated Transwell® inserts and incubated for 15 hours at 37° C., 5% CO2 (refer to above for proteins pre-bound and concentrations used). […]

MCF-7 cells [2] = experiment: Transwell migration assay, IGF-I+IGFBP-3+VN (TRI)-stimulated MCF-7 cell migration
Experimental: FIG. 6 is a graphical representation showing MCF-7 cell migration in response to VN peptides. MCF-7 cells were seeded onto the upper-surface of a Transwell inserts coated on the under-surface with treatments containing IGF-I+IGFBP-3+VN (TRI; 10 nM) with or without increasing concentrations of either peptide P7, P8 or Pneg. Migration was assessed after 15 hours. Data is represented as percentage of change in migration compared to the TRI only control. Error bars indicate standard error mean.
This assay has been repeated three times with treatments tested in triplicate wells in each replicate experiment.
The breast cancer epithelial cell line MCF-7 was used for this assay. Migration was assessed by measuring relative number of cells migrating through 8-μm pore Transwell membranes in response to substrate-bond proteins complexes. IGFBP-3 was allowed to bind either peptide P7, P8 or a combination of P7 and P8 for 2 hours. IGF-I was later added to this protein mix which was then added to Transwells pre-coated with VN. Post-overnight incubation, unbound proteins were removed, Transwells washed twice and cells seeded onto the upper chamber. Cells migrated to the under-surface over 15 hours were indirectly quantified using crystal violet staining.

MCF-7 cells [3] = experiment: 3D Matrigel growth assay of MCF-7 tumor spheroids
Source text: FIG. 7 is a photographic and graphical representation showing MCF-7 3D cell growth in response to peptide antagonists. MCF-7 cells suspended in media containing 1% serum and 2.5% Matrigel (Matrigel media) were layered onto a thin layer of 100% Matrigel. Spheroids were allowed to form in Matrigel media containing VN, TRI or TRI supplemented with peptides P7 and P8. Cells were allowed to grow for 14 days with media+proteins changed every 3 days. (A) Phase contrast and fluorescence microscopy was used to obtain images of the spheroids treated with 90 nM P7, P8 or P7+8. The fluorescent images were subjected to analysis using Image J to calculate spheroid sizes. The images post-ImageJ analyses are depicted in the bottom panel of A. All the images depicted are representative images obtained from triplicate experiments with treatments tested in duplicates in each replicate experiment. Scale bar denotes 100 μm. (B) Scatter plot depicts mean spheroid size (μm^2) at Day 14 for each treatment, calculated using Image-J (90 nM peptide treatments are depicted here). Each data point in the graph is the average size of all spheroids present in a single field of view at 40× magnification. ** denotes p<0.01 and * denotes p<0.05. (C) To measure cell viability/proliferation the 3D culture was treated on Day 14 with 5% Alamar Blue dye for 4 hours and fluorescence intensities were recorded. Error bars indicate SEM. ** denotes p<0.01 Vs TRI and * denotes p<0.05 Vs TRI. The experiment was repeated twice with treatments tested in duplicate wells in each replicate experiment. TRI=IGF-I:IGFBP-5:VN trimeric complex (equimolar at 10 nM concentrations).
To closely mimic in vivo conditions, cells were grown in a 3D matrix (Matrigel) closely resembling in vivo extracellular matrix physiology. MCF-7 cells suspended in growth media containing 1% serum and 2.5% Matrigel (Matrigel media) were layered onto a thin layer of 100% Matrigel. Tumor spheroids were allowed to form for 3 days after which spent media was replenished with Matrigel media containing VN only, trimeric complex, or trimeric complex supplemented with increasing concentrations of peptides (P7, P8 or P7+P8). Cells were allowed to grow for additional 11 days with media+proteins changed every 3 days. Spheroid morphology was assessed using phase-contrast microscopy and cell viability was measured using AlamarBlue, a fluorescent metabolic dye.

Question: Which MCF-7 cell migration (MCF-7 cells [1]; TRI supplemented with peptide at 3× molar concentration of IGFBP-5 (43 ng/mL P7, 38 ng/mL P8), 15 hours) does the source give for “RVNLRTRRVDTVDPPYPRS (listed as Homo sapiens) [Peptide P8, human VN motif 8 mimic]” here?
Answer: Its MCF-7 cell migration is 94.4±1 % of VN.

Question: And the MCF-7 cell migration (MCF-7 cells [1]; TRI supplemented with peptide at 9× molar concentration of IGFBP-5, 15 hours)?
Answer: The MCF-7 cell migration was 121.7±8 % of VN.

Question: What about the “Inhibition of TRI-stimulated MCF-7 cell migration” value (MCF-7 cells [2]; 30 nM peptide dose, TRI 10 nM, 15 hours (most significant inhibition)) of the same sequence?
Answer: Its value is “returned to the ‘VN only’ treatment levels”.

Question: What about the “Inhibition of TRI-stimulated MCF-7 cell migration” value (MCF-7 cells [2]; increasing peptide concentrations added to TRI (IGF-I+IGFBP-3+VN; 10 nM), 15 hours) of the same sequence?
Answer: Its value is “dose dependent inhibition”.

Question: What about the “TRI-stimulated cell viability (AlamarBlue)” value (MCF-7 cells [3]; 90 nM peptide, Day 14, 3D Matrigel culture) of the same sequence?
Answer: The value was “significantly inhibit”.

Question: And the “Spheroid size (ImageJ) versus control TRI treatment” value (MCF-7 cells [3]; 90 nM peptide, Day 14, phalloidin staining)?
Answer: Its value is “highest inhibitory effects”.

Question: And the “Size of TRI-treated tumor spheroids (phase-contrast microscopy)” value (MCF-7 cells [3]; increasing concentrations of peptides, Matrigel 3D culture, 14 days)?
Answer: Its value is “decrease with increasing concentrations”.
